Legend:
[1] = test system: NQO1 activity in Hepa1c1c7 cells; assay: NAD(P)H: quinone oxidoreductase-1 (NQO1) enzyme induction assay (in vitro); format: cell-based, mouse; conditions: Mus musculus, Hepa-1c1c7, NQO1 activity upon addition of 400 nM of test compound, about 48 hr, ratio from the base without the compound
How it was run: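 Mouse Hepa1c1c7 hepatoma cells were treated with 400 nM compound for about 48 h, then lysed with digitonin/EDTA. NQO1 activity was measured as menadione-mediated MTT reduction with a G6P/G6PDH NADPH-regenerating system, stopped with dicoumarol, and read at A610. Values are the activity ratio versus untreated base wells.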

[2] = target: GST-fused human Keap1 (amino acid residues: 325-642) protein (Homo sapiens (Human), UniProt Q14145); assay: FP assay (in vitro): inhibition of binding between Nrf2 and Keap1 by fluorescence polarization; conditions: 20 nM GST-fused human Keap1, 10 nM FITC-labeled Nrf2 peptide, 2 hr at room temperature
Sequence of GST-fused human Keap1 (amino acid residues: 325-642) protein (Q14145 325-624 limits assumed): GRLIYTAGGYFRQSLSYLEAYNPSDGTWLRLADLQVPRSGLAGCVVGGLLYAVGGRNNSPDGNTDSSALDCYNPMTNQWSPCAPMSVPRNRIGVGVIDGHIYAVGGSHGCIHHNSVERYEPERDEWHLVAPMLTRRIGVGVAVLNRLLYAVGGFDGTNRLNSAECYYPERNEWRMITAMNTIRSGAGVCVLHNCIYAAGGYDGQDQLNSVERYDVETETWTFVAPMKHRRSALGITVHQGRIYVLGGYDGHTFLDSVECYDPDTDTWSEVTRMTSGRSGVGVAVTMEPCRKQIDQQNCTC

Row | IC50 [2] [nM] | SMILES | fold induction at 0.4 µM [1]
1 | 10 to 30 | Cc1c([C@H](CC(=O)O)c2cc(CN3Cc4nc(O)ccc4O[C@H](C(F)(F)F)C3)c3sccc3c2)ccc2c1nnn2C [Example 37, (3R)-3-(1,4-Dimethyl-1H-benzotriazol-5-yl)-3-(7-{[(2S)-7-hydroxy-2-(trifluoromethyl)-2,3-dihydropyrido[2,3-f][1,4]oxazepin-4(5H)-yl]methyl}-1-benzothiophen-5-yl)propanoic acid] | > 5
2 | 10 to 30 | Cc1c(C(CC(=O)O)c2cc(CN3Cc4nc(O)ccc4OC4(CC4)C3)c3sccc3c2)ccn2c(C)nnc12 (stereo not drawn) [Example 54, 3-(3,8-Dimethyl[1,2,4]triazolo[4,3-a]pyridin-7-yl)-3-{7-[(7′-hydroxy-3′H-spiro[cyclopropane-1,2′-pyrido[2,3-f][1,4]oxazepin]-4′(5′H)-yl)methyl]-1-benzothiophen-5-yl}propanoic acid] | 3 to 5
3 | 10 to 30 | CC[C@@H]1CN(Cc2cc(C(CC(=O)O)c3ccc4c(nnn4C)c3C)cc3ccsc23)Cc2nc(F)ccc2O1 (stereo partly drawn) [Example 57, 3-(1,4-Dimethyl-1H-benzotriazol-5-yl)-3-(7-{[(2R)-2-ethyl-7-fluoro-2,3-dihydropyrido[2,3-f][1,4]oxazepin-4(5H)-yl]methyl}-1-benzothiophen-5-yl)propanoic acid] | > 5
4 | ≤ 10 | Cc1c([C@H](CC(=O)O)c2cc(CN3Cc4nc(O)ccc4O[C@H](C(F)(F)F)C3)c3sccc3c2)cnc2c1nnn2C [Example 46, (3R)-3-(3,7-Dimethyl-3H-[1,2,3]triazolo[4,5-b]pyridin-6-yl)-3-(7-{[(2S)-7-hydroxy-2-(trifluoromethyl)-2,3-dihydropyrido[2,3-f][1,4]oxazepin-4(5H)-yl]methyl}-1-benzothiophen-5-yl)propanoic acid] | 3 to 5
5 | 10 to 30 | CC[C@@H]1CN(Cc2cc([C@@H](CC(=O)O)c3cc(C4CC4)c4c(nnn4C)c3C)cc3ccsc23)Cc2nc(O)ccc2O1 [Example 35, (3R)-3-(7-Cyclopropyl-1,4-dimethyl-1H-benzotriazol-5-yl)-3-(7-{[(2R)-2-ethyl-7-hydroxy-2,3-dihydropyrido[2,3-f][1,4]oxazepin-4(5H)-yl]methyl}-1-benzothiophen-5-yl)propanoic acid] | > 5
6 | ≤ 10 | CC[C@H]1Cc2cccnc2CN(Cc2cc([C@H](CC(=O)O)c3ccc4c(nnn4C)c3C)cc3ccsc23)C1 [Example 70, (3S)-3-(1,4-Dimethyl-1H-benzotriazol-5-yl)-3-(7-{[(6S)-6-ethyl-5,6,7,9-tetrahydro-8H-pyrido[2,3-c]azepin-8-yl]methyl}-1-benzothiophen-5-yl)propanoic acid] | > 5
7 | 30 to 300 | Cc1c(C(CC(=O)O)c2cc(CN3Cc4nc(O)ccc4OC4(CC4)[C@@H]3C)c3sccc3c2)ccc2c1nnn2C (single isomer, unassigned) [Example 60, (3R*)-3-(1,4-Dimethyl-1H-benzotriazol-5-yl)-3-(7-{[(3′S)-7′-hydroxy-3′-methyl-3′H-spiro[cyclopropane-1,2′-pyrido[2,3-f][1,4]oxazepin]-4′(5′H)-yl]methyl}-1-benzothiophen-5-yl)propanoic acid] | > 5
8 | 30 to 300 | CC[C@@H]1CN(Cc2cc(C(CC(=O)O)c3ccc4c(nnn4CC)c3C)cc3ccsc23)Cc2nc(C)ccc2O1 (stereo partly drawn) [Example 92, 3-(1-Ethyl-4-methyl-1H-benzotriazol-5-yl)-3-(7-{[(2R)-2-ethyl-7-methyl-2,3-dihydropyrido[2,3-f][1,4]oxazepin-4(5H)-yl]methyl}-1-benzothiophen-5-yl)propanoic acid] | > 5
9 | 10 to 30 | CC[C@@H]1CN(Cc2cc([C@H](CC(=O)O)c3cc(C#N)c4c(nnn4C)c3C)cc3ccsc23)Cc2nc(O)ccc2O1 [Example 34, (3S)-3-(7-Cyano-1,4-dimethyl-1H-benzotriazol-5-yl)-3-(7-{[(2R)-2-ethyl-7-hydroxy-2,3-dihydropyrido[2,3-f][1,4]oxazepin-4(5H)-yl]methyl}-1-benzothiophen-5-yl)propanoic acid] | 3 to 5
10 | ≤ 10 | CC[C@@H]1CN(Cc2cc([C@@H](CC(=O)O)c3ccc4c(nnn4C)c3C)cc3ccsc23)Cc2nc(NC)ccc2O1 [Example 77, (3R)-3-(1,4-Dimethyl-1H-benzotriazol-5-yl)-3-(7-{[(2R)-2-ethyl-7-(methylamino)-2,3-dihydropyrido[2,3-f][1,4]oxazepin-4(5H)-yl]methyl}-1-benzothiophen-5-yl)propanoic acid] | > 5
11 | ≤ 10 | CC[C@H]1Cc2ccc(O)nc2CN(Cc2cc([C@H](CC(=O)O)c3cc(C)c4c(nnn4C)c3C)cc3ccsc23)C1 [Example 86, (3S)-3-(7-{[(6S)-6-Ethyl-2-hydroxy-5,6,7,9-tetrahydro-8H-pyrido[2,3-c]azepin-8-yl]methyl}-1-benzothiophen-5-yl)-3-(1,4,7-trimethyl-1H-benzotriazol-5-yl)propanoic acid] | > 5
12 | 10 to 30 | CC[C@@H]1CN(Cc2cc([C@H](CC(=O)O)c3cnc4c(nnn4C)c3C)cc3ccsc23)Cc2nc(N)ccc2O1 [Example 68, (3S)-3-(7-{[(2R)-7-Amino-2-ethyl-2,3-dihydropyrido[2,3-f][1,4]oxazepin-4(5H)-yl]methyl}-1-benzothiophen-5-yl)-3-(3,7-dimethyl-3H-[1,2,3]triazolo[4,5-b]pyridin-6-yl)propanoic acid] | > 5
13 | 10 to 30 | CC[C@@H]1CN(Cc2cc([C@@H](c3cnc4c(nnn4C)c3C)C(C)(C)C(=O)O)cc3ccsc23)Cc2nc(O)ccc2O1 [Example 48, (3S)-3-(3,7-Dimethyl-3H-[1,2,3]triazolo[4,5-b]pyridin-6-yl)-3-(7-{[(2R)-2-ethyl-7-hydroxy-2,3-dihydropyrido[2,3-f][1,4]oxazepin-4(5H)-yl]methyl}-1-benzothiophen-5-yl)-2,2-dimethylpropanoic acid] | > 5
14 | 10 to 30 | Cc1c([C@H](CC(=O)O)c2cc(CN3Cc4nc(O)ccc4OC4(CC4)C3)c3sccc3c2)ccc2c1nnn2C [Example 4, (3R)-3-(1,4-Dimethyl-1H-benzotriazol-5-yl)-3-{7-[(7′-hydroxy-3′H-spiro[cyclopropane-1,2′-pyrido[2,3-f][1,4]oxazepin]-4′ (5′H)-yl)methyl]-1-benzothiophen-5-yl}propanoic acid] | > 5
15 | 10 to 30 | CC[C@H]1Cc2ccc(O)nc2CN(Cc2cc([C@H](CC(=O)O)c3cnc4c(nnn4C)c3C)cc3ccsc23)C1 [Example 81, (3S)-3-(3,7-Dimethyl-3H-[1,2,3]triazolo[4,5-b]pyridin-6-yl)-3-(7-{[(6S)-6-ethyl-2-hydroxy-5,6,7,9-tetrahydro-8H-pyrido[2,3-c]azepin-8-yl]methyl}-1-benzothiophen-5-yl)propanoic acid] | > 5
16 | 10 to 30 | Cc1c([C@H](CC(=O)O)c2cc(CN3Cc4nc(O)ccc4O[C@H](C4CC4)C3)c3sccc3c2)cnc2c1nnn2C [Example 10, (3R)-3-(7-{[(2R)-2-Cyclopropyl-7-hydroxy-2,3-dihydropyrido[2,3-f][1,4]oxazepin-4(5H)-yl]methyl}-1-benzothiophen-5-yl)-3-(3,7-dimethyl-3H-[1,2,3]triazolo[4,5-b]pyridin-6-yl)propanoic acid] | > 5
17 | 30 to 300 | Cc1c([C@@H](CC(=O)O)c2cc(CN3Cc4nc(O)ccc4O[C@H](C4CC4)C3)c3sccc3c2)cnc2c1nnn2C [Example 9, (3S)-3-(7-{[(2R)-2-Cyclopropyl-7-hydroxy-2,3-dihydropyrido[2,3-f][1,4]oxazepin-4(5H)-yl]methyl}-1-benzothiophen-5-yl)-3-(3,7-dimethyl-3H-[1,2,3]triazolo[4,5-b]pyridin-6-yl)propanoic acid] | > 5
18 | ≤ 10 | CC[C@@H]1CN(Cc2cc([C@H](CC(=O)O)c3cc(OC(F)(F)F)c4c(nnn4C)c3C)cc3ccsc23)Cc2nc(O)ccc2O1 [Example 42, (3S)-3-[1,4-Dimethyl-7-(trifluoromethoxy)-1H-benzotriazol-5-yl]-3-(7-{[(2R)-2-ethyl-7-hydroxy-2,3-dihydropyrido[2,3-f][1,4]oxazepin-4(5H)-yl]methyl}-1-benzothiophen-5-yl)propanoic acid] | > 5
19 | 30 to 300 | CC[C@@H]1CN(Cc2cc(C(CC(=O)O)c3ccc4c(nnn4C)c3C)cc3ccsc23)Cc2ncc(O)cc2O1 (single isomer, unassigned) [Example 65, (3R*)-3-(1,4-Dimethyl-1H-benzotriazol-5-yl)-3-(7-{[(2R)-2-ethyl-8-hydroxy-2,3-dihydropyrido[2,3-f][1,4]oxazepin-4(5H)-yl]methyl}-1-benzothiophen-5-yl)propanoic acid] | > 5
20 | 30 to 300 | CC[C@@H]1CN(Cc2cc([C@@H](CC(=O)O)c3cnc4c(nnn4C)c3C)cc3ccsc23)Cc2nc(O)ccc2O1 [Example 23, (3R)-3-(3,7-Dimethyl-3H-[1,2,3]triazolo[4,5-b]pyridin-6-yl)-3-(7-{[(2R)-2-ethyl-7-hydroxy-2,3-dihydropyrido[2,3-f][1,4]oxazepin-4(5H)-yl]methyl}-1-benzothiophen-5-yl)propanoic acid] | 3 to 5
21 | 30 to 300 | CC[C@H]1Cc2cccnc2CN(Cc2cc(C(CC(=O)O)c3ccc4c(nnn4C)c3C)cc3ccsc23)C1 (stereo partly drawn) [Example 64, 3-(1,4-Dimethyl-1H-benzotriazol-5-yl)-3-(7-{[(6S)-6-ethyl-5,6,7,9-tetrahydro-8H-pyrido[2,3-c]azepin-8-yl]methyl}-1-benzothiophen-5-yl)propanoic acid] | > 5
